Where a name gives a salt, the structure may show the parent alone. Read-outs that look alike come from different tables or passages of the source.
Tests used:
A549 (lung carcinoma) = assay: Antiproliferative activity, sulforhodamine B assay; format: cell-based, human; details: SRB, 72 h incubation, read-out: IC50 ± SD, A-549
Text: (§1) Ten different human cancer cell lines (including drug-resistant sublines) and one non-tumorigenic murine fibroblasts cell line were used to determine antiproliferative activity of the tested compounds. The MDA-MB-231 (breast adenocarcinoma), UM-UC-3 (urinary bladder transitional cell carcinoma), LoVo (colorectal adenocarcinoma), LoVo^Dx (colorectal adenocarcinoma, doxorubicin-resistant) and Balb/3T3 (non-tumorigenic murine fibroblasts) were purchased from the American Type Culture Collection (ATCC; Rockville, USA). The MCF-7 (breast adenocarcinoma) and A549 (lung carcinoma) were purchased from European Collection of Authenticated Cell Cultures (ECACC; Porton Down, UK). The UM-UC-3^CDDP, UM-UC-3^GEM, UM-UC-3^VBL, and UM-UC-3^CDDP/GEM cell lines were established at Hirszfeld Institute of Immunology and Experimental Therapy of the Polish Academy of Sciences (HIIET, PAS, Wroclaw, Poland) by the continuous exposure to the increasing concentrations of corresponding cytostatics.
(§2) The Balb/3T3 and UM-UC-3 were cultured in Dulbecco’s Modified Eagle Medium (DMEM; Life Technologies, UK) supplemented with 10% (v/v) fetal bovine serum (FBS; GE Healthcare HyClone, Logan, USA) and 2 mM L-glutamine (Sigma-Aldrich, Poznań, Poland). The UM-UC-3^CDDP, UM-UC-3^GEM, UM-UC-^3VBL, and UM-UC-3^CDDP/GEM culture media were additionally supplemented with appropriate cytostatics: 2.5 µg/mL cisplatin (Accord, Warsaw, Poland) for UM-UC-3^CDDP, 500 nM gemcitabine (Sigma-Aldrich, Poznań, Poland) for UM-UC-3^GEM, 5 nM vinblastine (Sigma-Aldrich, Poznań, Poland) for UM-UC-3VBL, 2.5 µg/mL cisplatin and 500 nM gemcitabine for UM-UC-3^CDDP/GEM. The LoVo cell line was cultured in F-12K Nutrient Mixture (F-12K; Corning, Corning, USA), supplemented with 10% (v/v) FBS. LoVo^Dx culture medium was additionally supplemented with doxorubicin 100 ng/mL (Accord, Warsaw, Poland). The MCF-7 cell line was cultured in Eagle’s medium (HIIET, PAS, Wroclaw, Poland), supplemented with 10% (v/v) FBS (Sigma-Aldrich, Poznań, Poland), 2 mM L-glutamine, MEM non-essential amino acid solution 1% (v/v) (Sigma-Aldrich, Poznań, Poland), insulin 8 µg/mL (Sigma-Aldrich, Poznań, Poland). The MDA-MB-231 cell line was cultured in RPMI 1640 (HIIET, PAS, Wroclaw, Poland), supplemented with 10% (v/v) FBS (Sigma-Aldrich, Poznań, Poland) and 2 mM L-glutamine. The A 549 cell line was cultured in OptiMEM (HIIET, PAS, Wroclaw, Poland), supplemented with 5% (v/v) FBS (GE Healthcare HyClone, Logan, USA) and 2 mM L-glutamine. All culture media were supplemented with antibiotics—100 μg/mL streptomycin (Polfa Tarchomin, Warsaw, Poland) and 100 U/mL penicillin (Sigma-Aldrich, Poznań, Poland).
(§3) All cell lines were cultured in a humidified atmosphere at 37 °C with 5% (v/v) CO2 and passaged twice a week using EDTA-Trypsin solution (pH 8; HIIET, Wroclaw, Poland) as a detachment agent.
(§4) All compounds, for antiproliferative activity assessment, were stored at […] as 50 mM solutions in dimethyl sulfoxide (DMSO; Avantor Performance Materials, Gliwice, Poland).
(§5) The cells were seeded on 384-well plates (Greiner Bio One, Kremsmünster, Austria) at 1 × 10^3 cells/well density for A 549, UM-UC-3, UM-UC-3^CDDP, UM-UC-3^GEM, UM-UC-3^CVBL and UM-UC-3^CDDP/GEM cell lines. Other cell lines were seeded at 2 × 10^3 cells/well. After overnight incubation, compounds were applied at eight concentrations (ranging from 100 µM to 0.03 µM). After 72 h incubation, the sulforhodamine B (SRB) assay based on Skehan et al. was carried out with slight modifications. In brief, 50 µL of the medium was replaced with 30 µL/well of 25% (w/v) trichloroacetic acid (Avantor Performance Materials, Gliwice, Poland). After 1 h incubation at room temperature, plates were washed three times with tap water, and 20 µL of 0.1% (w/v) solution of sulforhodamine B (Sigma-Aldrich, Poznan, Poland) in 1% (v/v) acetic acid (Avantor Performance Materials, Gliwice, Poland) was added to each well. […]

[1] = tested on: LoVo (colorectal adenocarcinoma); assay: Antiproliferative activity, sulforhodamine B assay; format: cell-based, human; details: SRB, 72 h incubation, read-out: IC50 ± SD, LoVo
Text: as §1, §2, §3, §4, §5

[2] = tested on: LoVo^DX (colorectal adenocarcinoma, doxorubicin-resistant); assay: Antiproliferative activity, sulforhodamine B assay; format: cell-based, human; details: SRB, 72 h incubation, read-out: IC50 ± SD, LoVo^DX
Text: as §1, §2, §3, §4, §5

[3] = tested on: MCF-7 (breast adenocarcinoma); assay: Antiproliferative activity, sulforhodamine B assay; format: cell-based, human; details: SRB, 72 h incubation, read-out: IC50 ± SD, MCF-7
Text: as §1, §2, §3, §4, §5

[4] = tested on: MDA-MB-231 (breast adenocarcinoma); assay: Antiproliferative activity, sulforhodamine B assay; format: cell-based, human; details: SRB, 72 h incubation, read-out: IC50 ± SD, MDA-MB-231
Text: as §1, §2, §3, §4, §5

[5] = tested on: UM-UC-3 (urinary bladder transitional cell carcinoma); assay: Antiproliferative activity, sulforhodamine B assay; format: cell-based, human; details: SRB, 72 h incubation, read-out: IC50 ± SD, UM-UC-3
Text: as §1, §2, §3, §4, §5

[6] = tested on: UM-UC-3^CDDP (cisplatin-resistant); assay: Antiproliferative activity, sulforhodamine B assay; format: cell-based, human; details: SRB, 72 h incubation, read-out: IC50 ± SD, UM-UC-3^CDDP
Text: as §1, §2, §3, §4, §5

[7] = tested on: UM-UC-3^CDDP/GEM (resistant to cisplatin and gemcitabine); assay: Antiproliferative activity, sulforhodamine B assay; format: cell-based, human; details: SRB, 72 h incubation, read-out: IC50 ± SD, UM-UC-3^CDDP/GEM
Text: as §1, §2, §3, §4, §5

[8] = tested on: UM-UC-3^GEM (gemcitabine-resistant); assay: Antiproliferative activity, sulforhodamine B assay; format: cell-based, human; details: SRB, 72 h incubation, read-out: IC50 ± SD, UM-UC-3^GEM
Text: as §1, §2, §3, §4, §5

[9] = tested on: UM-UC-3^VBL (vinblastine-resistant); assay: Antiproliferative activity, sulforhodamine B assay; format: cell-based, human; details: SRB, 72 h incubation, read-out: IC50 ± SD, UM-UC-3^VBL
Text: as §1, §2, §3, §4, §5

[10] = tested on: Balb/3T3 (non-tumorigenic murine fibroblasts); assay: Antiproliferative activity, sulforhodamine B assay; format: cell-based; details: SRB, 72 h incubation, non-tumorigenic line, read-out: IC50 ± SD, Balb/3T3
Text: as §1, §2, §3, §4, §5

[11] = tested on: ten diverse human cancer cells lines and murine non-tumorigenic cell line (Balb/3T3); assay: Antiproliferative screen, whole cell line panel (statements in words); format: cell-based; details: SRB; for antiproliferative activity (in words): across cell lines; for activity against resistant versus parent cell lines (in words): 10d: with exception of the line resistant to gemcitabine
Text: as §1, §2, §3, §4, §5

Structure (SMILES) | IC50 (A549 (lung carcinoma); Homo sapiens, A549) | IC50 ([1]; Homo sapiens, LoVo) | IC50 ([2]; Homo sapiens, LoVo/DX) | IC50 ([3]; Homo sapiens, MCF7) | IC50 ([4]; Homo sapiens, MDA-MB-231) | IC50 ([5]; Homo sapiens, UMUC3) | IC50 ([6]; Homo sapiens) | IC50 ([7]; Homo sapiens) | IC50 ([8]; Homo sapiens) | IC50 ([9]; Homo sapiens) | IC50 ([10]; Mus musculus, BALB/3T3) | antiproliferative activity (in words) [11] | activity against resistant versus parent cell lines (in words) [11] | further results
COC(=O)/C(=C/Sc1nc2ccccc2s1)NC(=O)[C@H](Cc1ccccc1)NC(=O)OC(C)(C)C [Compound 7d, Boc-Phe-ΔCys(S-benzothiazole)-OMe] | 6.6 ± 1.4 µM | 9.6 ± 0.9 µM | 8.6 ± 0.9 µM | 6.8 ± 0.5 µM | 10.8 ± 0.4 µM | 6.7 ± 1.4 µM | 11.2 ± 1.5 µM | 9.1 ± 1.2 µM | 8 ± 2.3 µM | 6.3 ± 1 µM | 3.1 ± 0.6 µM | most potent representatives | equipotential towards both resistant and parent cell lines | 
COC(=O)/C(=C/Sc1nc2ccccc2s1)NC(=O)[C@@H](N)Cc1ccccc1 [Compound 10d, HCl Phe-ΔCys(S-benzothiazole)-OMe] | 14 ± 5.6 µM | 70.3 ± 21.5 µM | 33.1 ± 9 µM | 22 ± 4.5 µM | 24.4 ± 3 µM | 30.5 ± 3.7 µM | 16.6 ± 2.5 µM | 25.3 ± 8 µM | 67.8 ± 9.6 µM | 9.4 ± 2.2 µM | 42.2 ± 9.3 µM |  | more effective against resistant cell lines | 
COC(=O)/C(=C/Sc1nc[nH]n1)NC(=O)[C@H](Cc1ccccc1)NC(=O)OC(C)(C)C [Compound 7a, Boc-Phe-ΔCys(S-triazole)-OMe] | 60.7 ± 12.1 µM | 75.8 ± 6.5 µM | > 100 µM | 74.5 ± 5.8 µM | 53.3 ± 5.5 µM | 56 ± 5.7 µM | 67.7 ± 3.9 µM | 62.2 ± 5.3 µM | 65.2 ± 4.9 µM | 54.9 ± 3.5 µM | 19.7 ± 1.9 µM | markedly lower, if any, activity |  | 
[NH2][Pt]([NH2])([Cl])[Cl] [CDDP, cisplatin, reference compound] |  |  |  |  |  |  |  |  |  |  |  |  |  | IC50 (A549 (lung carcinoma)): 2.7 ± 1 µM; IC50 [1]: 4.4 ± 0.3 µM; IC50 [2]: 3.4 ± 0.2 µM; IC50 [3]: 6 ± 2.2 µM; IC50 [4]: 24.4 ± 4.8 µM; IC50 [5]: 2.4 ± 0.6 µM; IC50 [6]: 26.1 ± 1.8 µM; IC50 [7]: 25.1 ± 1.9 µM; IC50 [8]: 2.6 ± 0.2 µM; IC50 [9]: 2.3 ± 0.3 µM; IC50 [10]: 10.2 ± 4.8 µM
COC(=O)/C(=C/Sc1nc2cc(OC)ccc2o1)NC(=O)[C@H](Cc1ccccc1)NC(=O)OC(C)(C)C [Compound 7c, Boc-Phe-ΔCys(S-5-methoxybenzoxazole)-OMe] | 4 ± 1.1 µM | 6.3 ± 0.5 µM | 4.5 ± 0.4 µM | 4.5 ± 0.4 µM | 7.1 ± 0.8 µM | 6.2 ± 0.8 µM | 6.8 ± 0.8 µM | 5.9 ± 0.4 µM | 7 ± 0.5 µM | 5.8 ± 0.6 µM | 5.3 ± 0.4 µM | most potent representatives | equipotential towards both resistant and parent cell lines | 
COC(=O)/C(=C/Sc1nc(-c2ccccc2)c[nH]1)NC(=O)[C@H](Cc1ccccc1)NC(=O)OC(C)(C)C [Compound 7b, Boc-Phe-ΔCys(S-4-phenylimidazole)-OMe] | 12 ± 4 µM | 16.4 ± 1.7 µM | 23 ± 2.2 µM | 15.5 ± 2.5 µM | 15.2 ± 4.4 µM | 13.5 ± 4.5 µM | 19 ± 3.2 µM | 17.2 ± 2.1 µM | 19.9 ± 3.3 µM | 17.3 ± 1.7 µM | 7.6 ± 0.9 µM |  |  | 
COC(=O)/C(=C/Sc1nc(-c2ccccc2)c[nH]1)NC(=O)CNC(=O)OC(C)(C)C [Compound 6b, Boc-Gly-ΔCys(S-4-phenylimidazole)-OMe] | 27.2 ± 7.7 µM | 32.4 ± 2.6 µM | > 100 µM | 31.8 ± 7.8 µM | 35 ± 10 µM | 23.1 ± 2.6 µM | 34.6 ± 3.6 µM | 32.5 ± 4 µM | 35.1 ± 2.8 µM | 33.8 ± 2.6 µM | 38.4 ± 3.5 µM |  |  | 

— publication PMC7927096, “Dipeptides of S-Substituted Dehydrocysteine as Artzyme Building Blocks: Synthesis, Complexing Abilities and Antiproliferative Properties” (International Journal of Molecular Sciences, 2021)
